Assay results from patent US10239840B2, “Benzoazepine derivatives” (ViiV HEALTHCARE UK LIMITED, priority 2015, dated 2019).

What follows are compounds tested on HIV (assay: MT4 assay, antiviral HIV activity). Details: MT-4 cells (HTLV-1 transformed), read-out at 96 hours with cell titer glo.
Type: cell-based
Method: Antiviral HIV activity and cytotoxicity values for compounds of the invention from Table 1 were measured in parallel in the HTLV-1 transformed cell line MT-4 based on the method previously described (Hazen et al., 2007, In vitro antiviral activity of the novel, tyrosyl-based human immunodeficiency virus (HIV) type 1 protease inhibitor brecanavir (GW640385) in combination with other antiretrovirals and against a panel of protease inhibitor-resistant HIV (Hazen et al., “In vitro antiviral activity of the novel, tyrosyl-based human immunodeficiency virus (HIV) type 1 protease inhibitor brecanavir (GW640385) in combination with other antiretrovirals and against a panel of protease inhibitor-resistant HIV”, Antimicrob. Agents Chemother. 2007, 51: 3147-3154; and Pauwels et al., “Sensitive and rapid assay on MT-4 cells for the detection of antiviral compounds against the AIDS virus”, J. of Virological Methods 1987, 16: 171-185).
Luciferase activity was measured 96 hours later by adding a cell titer glo (Promega, Madison, Wis.). Percent inhibition of cell protection data was plotted relative to no compound control. Under the same condition, cytotoxicity of the compounds was determined using cell titer Glo™ (Promega, Madison, Wis.). IC50s were determined from a 10 point dose response curve using 3-4-fold serial dilution for each compound, which spans a concentration range >1000 fold.
These values are plotted against the molar compound concentrations using the standard four parameter logistic equation: y=((Vmax*x^n)/(K^n+x^n)+Y2
Y2=minimum γ n=slope factor
Vmax=maximum γ x=compound concentration [M]

| Compound | IC50 [µM] |
| --- | --- |
| COc1ccc(-c2c(C)c3c(c(C)c2[C@H](OC(C)(C)C)C(=O)O)CCN(C(=O)c2cccc(F)c2)CC3)cc1 [Example 2, (S)-2-(tert-butoxy)-2-(3-(3-fluorobenzoyl)-8-(4-methoxyphenyl)-6,9-dimethyl-2,3,4,5-tetrahydro-1H-benzo[d]azepin-7-yl)acetic Acid] | 0.076 |
| Cc1c(-c2c(C)c3c(c(C)c2[C@H](OC(C)(C)C)C(=O)O)CCN(S(=O)(=O)C2CCCCC2)CC3)cc(F)c2c1CCCO2 (atropisomer, axis not shown; (M)) [Example 20, (2S)-2-(tert-butoxy)-2-((M)-3-(cyclohexylsulfonyl)-8-(8-fluoro-5-methylchroman-6-yl)-6,9-dimethyl-2,3,4,5-tetrahydro-1H-benzo[d]azepin-7-yl)acetic Acid] | 0.042 |
| Cc1c(-c2c(C)c3c(c(C)c2[C@H](OC(C)(C)C)C(=O)O)CCN(C(=O)N2CCCCC2)CC3)cc(F)c2c1CCCO2 (atropisomer, axis not shown; (M)) [Example 22, (2S)-2-(tert-butoxy)-2-((M)-8-(8-fluoro-5-methylchroman-6-yl)-6,9-dimethyl-3-(piperidine-1-carbonyl)-2,3,4,5-tetrahydro-1H-benzo[d]azepin-7-yl)acetic Acid] | 0.009 |
| Cc1c(-c2c(C)c3c(c(C)c2[C@H](OC(C)(C)C)C(=O)O)CCN(C2CCCCC2)CC3)cc(F)c2c1CCCO2 (atropisomer, axis not shown; (M)) [Example 18, (2S)-2-(tert-butoxy)-2-((M)-3-cyclohexyl-8-(8-fluoro-5-methylchroman-6-yl)-6,9-dimethyl-2,3,4,5-tetrahydro-1H-benzo[d]azepin-7-yl)acetic Acid] | 0.013 |
| Cc1c(-c2c(C)c3c(c(C)c2[C@H](OC(C)(C)C)C(=O)O)CCN(C(=O)C2CCCCC2)CC3)cc(F)c2c1CCCO2 (atropisomer, axis not shown; (M)) [Example 12, (S)-2-(tert-butoxy)-2-((M)-3-(cyclohexanecarbonyl)-8-(8-fluoro-5-methylchroman-6-yl)-6,9-dimethyl-2,3,4,5-tetrahydro-1H-benzo[d]azepin-7-yl)acetic Acid] | 0.019 |
| Cc1c(-c2c(C)c3c(c(C)c2[C@H](OC(C)(C)C)C(=O)O)CCN(C(=O)c2cccc4c2OCC4)CC3)cc(F)c2c1CCCO2 (atropisomer, axis not shown; (M)) [Example 11, (S)-2-(tert-butoxy)-2-((M)-3-(2,3-dihydrobenzofuran-7-carbonyl)-8-(8-fluoro-5-methylchroman-6-yl)-6,9-dimethyl-2,3,4,5-tetrahydro-1H-benzo[d]azepin-7-yl)acetic Acid] | 0.009 |
| COc1ccc(F)cc1C(=O)N1CCc2c(C)c(-c3cc(F)c4c(c3C)CCCO4)c([C@H](OC(C)(C)C)C(=O)O)c(C)c2CC1 (atropisomer, axis not shown; (M)) [Example 7, (S)-2-(tert-butoxy)-2-((M)-3-(5-fluoro-2-methoxybenzoyl)-8-(8-fluoro-5-methylchroman-6-yl)-6,9-dimethyl-2,3,4,5-tetrahydro-1H-benzo[d]azepin-7-yl)acetic Acid] | 0.005 |
| Cc1c(-c2c(C)c3c(c(C)c2[C@H](OC(C)(C)C)C(=O)O)CCN(CCC2CCCCC2)CC3)cc(F)c2c1CCCO2 (atropisomer, axis not shown; (M)) [Example 16, (2S)-2-(tert-butoxy)-2-((M)-3-(2-cyclohexylethyl)-8-(8-fluoro-5-methylchroman-6-yl)-6,9-dimethyl-2,3,4,5-tetrahydro-1H-benzo[d]azepin-7-yl)acetic Acid] | 0.013 |
| Cc1c2c(c(C)c([C@H](OC(C)(C)C)C(=O)O)c1-c1ccccc1)CCN(C(=O)c1cccc(F)c1)CC2 [Example 3, (S)-2-(tert-butoxy)-2-(3-(3-fluorobenzoyl)-6,9-dimethyl-8-phenyl-2,3,4,5-tetrahydro-1H-benzo[d]azepin-7-yl)acetic Acid] | 0.219 |
| Cc1c(-c2c(C)c3c(c(C)c2[C@H](OC(C)(C)C)C(=O)O)CCN(C(=O)c2cccc(F)c2)CC3)cc(F)c2c1CCCO2 (atropisomer, axis not shown; (M)) [Example 5, (2S)-2-(tert-butoxy)-2-((M)-8-(8-fluoro-5-methylchroman-6-yl)-3-(3-fluorobenzoyl)-6,9-dimethyl-2,3,4,5-tetrahydro-1H-benzo[d]azepin-7-yl)acetic Acid] | 0.005 |
| Cc1c(-c2c(C)c3c(c(C)c2[C@H](OC(C)(C)C)C(=O)O)CCN(C(=O)C(=O)N2CCCCC2)CC3)cc(F)c2c1CCCO2 (atropisomer, axis not shown; (M)) [Example 14, (S)-2-(tert-butoxy)-2-((M)-8-(8-fluoro-5-methylchroman-6-yl)-6,9-dimethyl-3-(2-oxo-2-(piperidin-1-yl)acetyl)-2,3,4,5-tetrahydro-1H-benzo[d]azepin-7-yl)acetic Acid] | 0.017 |
| COc1c(F)cccc1C(=O)N1CCc2c(C)c(-c3cc(F)c4c(c3C)CCCO4)c([C@H](OC(C)(C)C)C(=O)O)c(C)c2CC1 (atropisomer, axis not shown; (M)) [Example 10, (S)-2-(tert-butoxy)-2-((M)-3-(3-fluoro-2-methoxybenzoyl)-8-(8-fluoro-5-methylchroman-6-yl)-6,9-dimethyl-2,3,4,5-tetrahydro-1H-benzo[d]azepin-7-yl)acetic Acid] | 0.005 |
| Cc1c(-c2c(C)c3c(c(C)c2[C@H](OC(C)(C)C)C(=O)O)CCN(CC2CCCCC2)CC3)cc(F)c2c1CCCO2 (atropisomer, axis not shown; (M)) [Example 17, (S)-2-(tert-butoxy)-2-((M)-3-(cyclohexylmethyl)-8-(8-fluoro-5-methylchroman-6-yl)-6,9-dimethyl-2,3,4,5-tetrahydro-1H-benzo[d]azepin-7-yl)acetic Acid] | 0.01 |
